{"source": "patent US7285554B2", "about": "“Pyrazole derivative” (Astellas Pharma Inc., priority 1997, dated 2007)", "test_system": "IL-2 production from Jurkat cells", "experiment": "cells", "settings": "Homo sapiens, read-out: IL-2 production inhibition IC50 value", "data": [{"smiles": "Cn1nc(C(F)(F)F)cc1-c1ccc(C(=O)Nc2ccccc2Cl)s1", "note": "[Example 5, 2′-chloro-5-(1-methyl-3-trifluoromethyl-1H-pyrazol-5-yl)thiophene-2-carboxyanilide]", "values": [{"measurement": "IC50", "result": "≤ 1000", "unit": "nM"}]}, {"smiles": "Cc1ncsc1C(=O)Nc1ccc(-n2nc(C(F)(F)F)cc2C(F)(F)F)cc1", "note": "[Example 1, 4-methyl-4′-[3,5-bis(trifluoromethyl)-1H-pyrazol-1-yl]thiazole-5-carboxyanilide]", "values": [{"measurement": "IC50", "result": "≤ 1000", "unit": "nM"}]}]}
